Assay results published in patent publication US9399646B2 (Genentech, Inc., priority 2010, dated 2016).

Assays:
MCF-7 cells = test: Breast cancer cell viability assay (CellTiter-Glo, 5 days); assay type: cell-based; settings: 5 days' compound exposure; for IC50: Homo sapiens, MCF7, 120 h
In short: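 MCF-7 cells, 320 per well in RPMI with 10% FBS and 20 mM HEPES, adhered overnight, then exposed 5 days to an eleven-point semilog dilution (final 0.3-0.000003 μM). CellTiter-Glo luminescence read; % viability = (sample − cell-free background)/(untreated − background) × 100.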

ER-α in MCF-7 cells = target: T1, ER-α in MCF-7 cells (Homo sapiens, UniProt P03372); test: Breast cancer cell ER-α in cell western assay (SP1); assay type: cell-based; design: endogenous in cells; host or cells: MCF-7; settings: 4 or 24 hr post compound addition; for Emax: MCF7, SP1 antibody, read-out: ER-α In Cell Western Assay (SP1) Max Response; for DC50: SP1 antibody, read-out: ER-α In Cell Western Assay (SP1) IC50
T1 sequence (P03372 1-595): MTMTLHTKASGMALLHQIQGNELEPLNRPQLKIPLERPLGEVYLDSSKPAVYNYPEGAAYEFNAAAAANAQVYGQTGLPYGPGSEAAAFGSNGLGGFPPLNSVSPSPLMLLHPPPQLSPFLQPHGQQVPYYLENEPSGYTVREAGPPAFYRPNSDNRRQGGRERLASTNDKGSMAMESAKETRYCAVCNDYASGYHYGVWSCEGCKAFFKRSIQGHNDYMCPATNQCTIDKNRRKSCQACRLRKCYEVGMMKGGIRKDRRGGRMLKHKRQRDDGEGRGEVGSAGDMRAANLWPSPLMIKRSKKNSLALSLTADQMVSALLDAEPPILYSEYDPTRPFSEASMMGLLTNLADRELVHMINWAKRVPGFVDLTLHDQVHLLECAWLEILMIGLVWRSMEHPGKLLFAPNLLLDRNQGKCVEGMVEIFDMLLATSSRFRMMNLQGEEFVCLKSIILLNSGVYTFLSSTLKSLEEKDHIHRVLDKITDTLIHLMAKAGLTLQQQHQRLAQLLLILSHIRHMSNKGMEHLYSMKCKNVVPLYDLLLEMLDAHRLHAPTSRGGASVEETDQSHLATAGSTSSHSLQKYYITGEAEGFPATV
In short: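 Fixed cells were immunostained with SP1 anti-ER antibody; ER signal (800 nm) was normalized to DRAQ5 DNA signal (700 nm) and expressed as % of untreated cells.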

IC50 (MCF-7 cells)	Emax (ER-α in MCF-7 cells)	DC50 (ER-α in MCF-7 cells)	Compound	MCF7 Viability Assay Max Response (MCF-7 cells)
≤ 100 nM	≥ 40%	≤ 100 nM	CC/C(=C(/c1ccc(/C=C/C(=O)Nc2nn[nH]n2)cc1)c1ccc2[nH]ncc2c1)c1ccc(F)cc1Cl [Compound 425, (E)-3-(4-((E)-2-(2-Chloro-4-fluorophenyl)-1-(1H-indazol-5-yl)but-1-en-1-yl)phenyl)-N-(2H-tetrazol-5-yl)acrylamide]	++ (++ = a single % value ≧ 40%)
≤ 100 nM	≥ 40%	≤ 100 nM	CC/C(=C(/c1ccc(/C=C/C(N)=O)cc1)c1ccc2scnc2c1)c1ccccc1 [Compound 426, (E)-3-(4-((E)-1-(Benzo[d]thiazol-5-yl)-2-phenylbut-1-en-1-yl)phenyl)acrylamide]	++ (++ = a single % value ≧ 40%)
≤ 100 nM	≥ 40%	≤ 100 nM	CC/C(=C(/c1ccc(/C=C/C(=O)NC)cc1)c1ccc2scnc2c1)c1ccccc1 [Compound 427, (E)-3-(4-((E)-1-(Benzo[d]thiazol-5-yl)-2-phenylbut-1-en-1-yl)phenyl)-N-methylacrylamide]	++ (++ = a single % value ≧ 40%)
≤ 100 nM	≥ 40%	≤ 100 nM	CC/C(=C(/c1ccc(/C=C/C(=O)NS(=O)(=O)c2ccccc2)cc1)c1ccc2[nH]ncc2c1)c1ccc(F)cc1Cl [Compound 428, (E)-3-(4-((E)-2-(2-Chloro-4-fluorophenyl)-1-(1H-indazol-5-yl)but-1-en-1-yl)phenyl)-N-(phenylsulfonyl)acrylamide]	++ (++ = a single % value ≧ 40%)
≤ 100 nM	≥ 40%	≤ 100 nM	CC/C(=C(/c1ccc(/C=C/C(=O)NS(=O)(=O)Cc2ccccc2)cc1)c1ccc2[nH]ncc2c1)c1ccc(F)cc1Cl [Compound 429, (E)-N-(Benzylsulfonyl)-3-(4-((E)-2-(2-chloro-4-fluorophenyl)-1-(1H-indazol-5-yl)but-1-en-1-yl)phenyl)acrylamide]	++ (++ = a single % value ≧ 40%)
≤ 100 nM	≥ 40%	≤ 100 nM	CC/C(=C(/c1ccc(/C=C/C(=O)Nc2nccs2)cc1)c1ccc2[nH]ncc2c1)c1ccccc1 [Compound 430, (E)-3-(4-((E)-1-(1H-Indazol-5-yl)-2-phenylbut-1-en-1-yl)phenyl)-N-(thiazol-2-yl)acrylamide]	++ (++ = a single % value ≧ 40%)
≤ 100 nM	≥ 40%	≤ 100 nM	CC/C(=C(/c1ccc(/C=C/C(=O)NC2CCCC2)cc1)c1ccc2[nH]ncc2c1)c1ccccc1 [Compound 431, (E)-3-(4-((E)-1-(1H-Indazol-5-yl)-2-phenylbut-1-en-1-yl)phenyl)-N-cyclopentylacrylamide]	++ (++ = a single % value ≧ 40%)
≤ 100 nM	≥ 40%	≤ 100 nM	CC/C(=C(/c1ccc(/C=C/C(=O)NS(=O)(=O)c2ccccn2)cc1)c1ccc2[nH]ncc2c1)c1ccc(F)cc1Cl [Compound 432, (E)-3-(4-((E)-2-(2-Chloro-4-fluorophenyl)-1-(1H-indazol-5-yl)but-1-en-1-yl)phenyl)-N-(pyridin-2-ylsulfonyl)acrylamide]	++ (++ = a single % value ≧ 40%)
≤ 100 nM	≥ 40%	≤ 100 nM	CC/C(=C(/c1ccc(/C=C/C(=O)NS(=O)(=O)c2cccnc2)cc1)c1ccc2[nH]ncc2c1)c1ccc(F)cc1Cl [Compound 433, (E)-3-(4-((E)-2-(2-Chloro-4-fluorophenyl)-1-(1H-indazol-5-yl)but-1-en-1-yl)phenyl)-N-(pyridin-3-ylsulfonyl)acrylamide]	++ (++ = a single % value ≧ 40%)
≤ 100 nM	≥ 40%	≤ 100 nM	CC/C(=C(/c1ccc(/C=C/C(=O)NS(=O)(=O)c2ccncc2)cc1)c1ccc2[nH]ncc2c1)c1ccc(F)cc1Cl [Compound 434, (E)-3-(4-((E)-2-(2-Chloro-4-fluorophenyl)-1-(1H-indazol-5-yl)but-1-en-1-yl)phenyl)-N-(pyridin-4-ylsulfonyl)acrylamide]	++ (++ = a single % value ≧ 40%)
≤ 100 nM	≥ 40%	≤ 100 nM	CC/C(=C(/c1ccc(/C=C/c2noc(=O)[nH]2)cc1)c1ccc2[nH]ncc2c1)c1ccccc1 [Compound 435, 3-((E)-4-((E)-1-(1H-Indazol-5-yl)-2-phenylbut-1-en-1-yl)styryl)-1,2,4-oxadiazol-5(4H)-one]	++ (++ = a single % value ≧ 40%)
≤ 100 nM	≥ 40%	≤ 100 nM	CC/C(=C(/c1ccc(/C=C/c2noc(=O)[nH]2)cc1)c1ccc2scnc2c1)c1ccc(F)cc1Cl [Compound 436, 3-((E)-4-((E)-1-(Benzo[d]thiazol-5-yl)-2-(2-chloro-4-fluorophenyl)but-1-en-1-yl)styryl)-1,2,4-oxadiazol-5(4H)-one]	++ (++ = a single % value ≧ 40%)
≤ 100 nM	≥ 40%	≤ 100 nM	CC/C(=C(/c1ccc(/C=C/c2noc(=O)[nH]2)cc1)c1ccc2[nH]ncc2c1)c1ccc(F)cc1Cl [Compound 437, 3-((E)-4-((E)-2-(2-Chloro-4-fluorophenyl)-1-(1H-indazol-5-yl)but-1-en-1-yl)styryl)-1,2,4-oxadiazol-5(4H)-one]	++ (++ = a single % value ≧ 40%)
≤ 100 nM	≥ 40%	≤ 100 nM	CC/C(=C(/c1ccc(/C=C/c2nsc(=O)[nH]2)cc1)c1ccc2[nH]ncc2c1)c1ccccc1 [Compound 438, 3-((E)-4-((E)-1-(1H-Indazol-5-yl)-2-phenylbut-1-en-1-yl)styryl)-1,2,4-thiadiazol-5(4H)-one]	++ (++ = a single % value ≧ 40%)
≤ 100 nM	≥ 40%	≤ 100 nM	CC/C(=C(/c1ccc(/C=C/c2nsc(=O)[nH]2)cc1)c1ccc2[nH]ncc2c1)c1ccc(F)cc1Cl [Compound 439, 3-((E)-4-((E)-2-(2-Chloro-4-fluorophenyl)-1-(1H-indazol-5-yl)but-1-en-1-yl)styryl)-1,2,4-thiadiazol-5(4H)-one]	++ (++ = a single % value ≧ 40%)
≤ 100 nM	≥ 40%	≤ 100 nM	CC/C(=C(/c1ccc(/C=C/c2noc(=S)[nH]2)cc1)c1ccc2[nH]ncc2c1)c1ccccc1 [Compound 440, 3-((E)-4-((E)-1-(1H-Indazol-5-yl)-2-phenylbut-1-en-1-yl)styryl)-1,2,4-oxadiazole-5(4H)-thione]	+ (+ = a single % value < 40%)
≤ 100 nM	≥ 40%	≤ 100 nM	CC/C(=C(/c1ccc(/C=C/c2noc(=S)[nH]2)cc1)c1ccc2[nH]ncc2c1)c1ccc(F)cc1Cl [Compound 441, 3-((E)-4-((E)-2-(2-Chloro-4-fluorophenyl)-1-(1H-indazol-5-yl)but-1-en-1-yl)styryl)-1,2,4-oxadiazole-5(4H)-thione]	+ (+ = a single % value < 40%)
